The values below come from publication PMC4558152, “A small molecule inhibitor of atypical protein kinase C signaling inhibits pancreatic cancer cell transformed growth and invasion” (Oncotarget, 2015).

The target of the assay is T1, PKCζ (Homo sapiens, UniProt Q05513).
T1 construct: gene PRKCZ
T1 sequence (Q05513 1-113): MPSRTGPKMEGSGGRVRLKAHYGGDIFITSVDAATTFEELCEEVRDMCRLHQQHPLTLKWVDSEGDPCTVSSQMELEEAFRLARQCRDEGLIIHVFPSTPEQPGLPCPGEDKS
T1 sequence (Q9NPB6 whole entry partner): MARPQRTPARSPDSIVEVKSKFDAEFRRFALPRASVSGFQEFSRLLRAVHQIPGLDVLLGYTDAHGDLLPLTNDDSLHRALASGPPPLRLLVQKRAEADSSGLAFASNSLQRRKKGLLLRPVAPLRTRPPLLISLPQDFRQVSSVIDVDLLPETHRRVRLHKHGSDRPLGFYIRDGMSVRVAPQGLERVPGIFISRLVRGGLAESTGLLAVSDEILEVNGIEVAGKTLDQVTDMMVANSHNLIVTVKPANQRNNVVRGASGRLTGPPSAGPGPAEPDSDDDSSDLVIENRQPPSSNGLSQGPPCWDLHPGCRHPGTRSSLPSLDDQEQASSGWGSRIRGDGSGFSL

In general, IC50 refers to the concentration needed to halve the response being measured. As for `O=C(O)CC([S][Au])C(=O)O` (stereo not shown) [ATM, Aurothiomalate], the midpoint of inhibition, the IC50, lay at 3 µM.
